# Where “and” joins values, the source holds several entries; their conditions need not be identical. Equal values may be shown once.
# How the values were obtained:
# [1] = molecular target: T1, CYP2C8 (Homo sapiens, UniProt P10632); experiment: CYP phenotyping, recombinant CYP2C8
# T1 sequence (P10632 1-490): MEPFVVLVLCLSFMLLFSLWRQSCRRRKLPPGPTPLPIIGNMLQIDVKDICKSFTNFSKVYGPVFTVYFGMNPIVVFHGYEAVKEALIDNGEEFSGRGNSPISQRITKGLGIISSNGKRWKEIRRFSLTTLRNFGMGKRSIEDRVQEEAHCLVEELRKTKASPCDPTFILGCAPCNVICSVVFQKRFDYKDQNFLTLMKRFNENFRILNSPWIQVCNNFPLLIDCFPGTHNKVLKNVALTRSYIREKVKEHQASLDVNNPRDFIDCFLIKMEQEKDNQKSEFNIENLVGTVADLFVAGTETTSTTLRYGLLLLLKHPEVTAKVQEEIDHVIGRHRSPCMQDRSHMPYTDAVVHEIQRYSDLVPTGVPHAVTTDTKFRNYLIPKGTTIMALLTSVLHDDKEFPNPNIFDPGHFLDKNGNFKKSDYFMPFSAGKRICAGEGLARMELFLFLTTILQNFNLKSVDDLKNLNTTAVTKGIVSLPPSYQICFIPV
# Method: (§1) Bactosomes prepared from E. coli that heterologously expressed individual human CYP isoforms together with human CYP reductase were obtained from CYPEX LTD (Scotland, UK), and stored at −80 °C prior to use. […] Timepoints were taken at 0, 5, 10, 15, 20, and 30 min. Substrate disappearance was used to calculate intrinsic clearance (Clint) and half-life (t1/2). All incubations were performed in triplicate. […] The chemical inhibitors for CYP1A2, 2A6, 2B6, 2C8, 2C9, 2C19, 2D6, and 3A4 were furafylline, tranylcypromine, ticlopidine, montelukast, sulfaphenazole, N-3-benzylnirvanol, quinidine, and ketoconazole, respectively. Timepoints were collected at 0, 15, 30, 45, and 60 min, and the remaining percentage of the parent drug at each timepoint was calculated (the calculation details are available in the Supplementary Materials). All incubations were performed in triplicate.
# (§2) 1.3.1 Intrinsic Clearance (Heterologously Expressed Human Cytochrome P450) All calculations were carried out using Microsoft Excel. The slope, k, was determined by linear regression of the natural logarithm of percent parent disappearance vs. incubation time curve. Peak areas for test article and internal standard were determined from extracted ion chromatograms. The peak area ratio was used to calculated for the results.
# (§3) The half-life value (t1/2 rCYPi) was determined from the slope value: […]
# [2] = test system: human liver microsomes; experiment: ZB716 remaining in human liver microsomes with and without CYP-specific chemical inhibitors; conditions: HLM
# Method: as §1
# The slope, k, was determined by linear regression of the natural logarithm of percent parent disappearance vs. incubation time curve. Peak areas for test article and internal standard were determined from extracted ion chromatograms. The peak area ratio was used to calculated for the results.
# The half-life value (t1/2 rCYPi) was determined from the slope value:
# Conversion of the t1/2 rCYPi (in min) into the intrinsic clearance (Clint rCYPi in μL/min/pmol) was done using the following equation:
# 1.3.2 For inhibition ratio (%) (Liver microsomes with and without inhibitors) The slope value, k, was determined by linear regression of the natural logarithm of the remaining percentage of the parent drug vs. incubation time curve. If the turnover was not significant (T-test with p<0.05 was not obtained) and the percentage remaining at last time point was ≥ 80%, the k value was
# [3] = molecular target: T2, CYP2B6 (Homo sapiens, UniProt P20813); experiment: CYP phenotyping, recombinant CYP2B6
# T2 sequence (P20813 1-491): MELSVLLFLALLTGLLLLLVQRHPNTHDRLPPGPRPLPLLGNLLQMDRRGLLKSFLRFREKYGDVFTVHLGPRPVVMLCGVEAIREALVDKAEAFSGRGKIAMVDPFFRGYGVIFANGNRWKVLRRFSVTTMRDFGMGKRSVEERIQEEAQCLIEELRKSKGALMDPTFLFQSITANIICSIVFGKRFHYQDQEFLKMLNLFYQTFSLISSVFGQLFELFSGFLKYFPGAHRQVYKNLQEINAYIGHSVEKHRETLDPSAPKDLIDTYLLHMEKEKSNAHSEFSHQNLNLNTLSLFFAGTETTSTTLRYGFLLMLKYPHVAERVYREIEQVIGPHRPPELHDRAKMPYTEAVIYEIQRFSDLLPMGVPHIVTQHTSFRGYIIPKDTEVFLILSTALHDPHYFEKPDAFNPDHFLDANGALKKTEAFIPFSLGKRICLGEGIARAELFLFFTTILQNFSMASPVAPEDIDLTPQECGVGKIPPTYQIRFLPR
# Method: as §1, §2, §3
# [4] = 2 µM ZB716, with CYP1A2 inhibitor Furafylline
# [5] = 2 µM ZB716, with CYP2A6 inhibitor Tranylcypromine
# [6] = 2 µM ZB716, with CYP2B6 inhibitor Ticlopidine
# [7] = 2 µM ZB716, with CYP2C8 inhibitor Montelukast
# [8] = 2 µM ZB716, with CYP2C9 inhibitor Sulfaphenazole
# [9] = 2 µM ZB716, with CYP2C19 inhibitor N-3-benzylnirvanol
# [10] = 2 µM ZB716, with CYP2D6 inhibitor Quinidine
# [11] = 2 µM ZB716, with CYP3A inhibitor Ketoconazole
structure (smiles),measurement,setting,value
"C[C@]12CC[C@@H]3c4ccc(B(O)O)cc4C[C@@H](CCCCCCCCC[S+]([O-])CCCC(F)(F)C(F)(F)F)[C@H]3[C@@H]1CC[C@@H]2O (stereo partly drawn) [ZB716, fulvestrant-3-boronic acid]",half-life at 2 µM,[1]; human,11.1 ± 1.2 min
same,Clint,"[1]; recombinant CYP2C8, 2 µM ZB716",1.25 ± 0.14 µL/min/pmol CYP
same,Inhibition %,"[2]; 2 µM ZB716, Without Inhibitor",0.00%
same,Remaining Percentage (%) at 15 min,"[2]; 2 µM ZB716, Without Inhibitor",18.7 ± 1.2%
same,Remaining Percentage (%) at 60 min,"[2]; 2 µM ZB716, Without Inhibitor",5.74 ± 0.52%
same,Inhibition %,[2]; [4],−48.9%
same,Remaining Percentage (%) at 15 min,[2]; [4],8.24 ± 0.80%
same,Remaining Percentage (%) at 60 min,[2]; [4],1.43 ± 0.51%
same,Inhibition %,[2]; [5],−14.4%
same,Remaining Percentage (%) at 15 min,[2]; [5],14.8 ± 2.5%
same,Remaining Percentage (%) at 60 min,[2]; [5],5.24 ± 2.31%
same,Inhibition %,[2]; [6],−9.46%
same,Remaining Percentage (%) at 15 min,[2]; [6],15.9 ± 0.8%
same,Remaining Percentage (%) at 60 min,[2]; [6],2.09 ± 0.23%
same,Inhibition %,[2]; [7],−15.1%
same,Remaining Percentage (%) at 15 min,[2]; [7],14.6 ± 2.4%
same,Remaining Percentage (%) at 60 min,[2]; [7],3.41 ± 0.30%
same,Inhibition %,[2]; [8],−31.8%
same,Remaining Percentage (%) at 15 min,[2]; [8],10.9 ± 0.1%
same,Remaining Percentage (%) at 60 min,[2]; [8],2.31 ± 0.18%
same,Inhibition %,[2]; [9],−22.5%
same,Remaining Percentage (%) at 15 min,[2]; [9],12.8 ± 1.2%
same,Remaining Percentage (%) at 60 min,[2]; [9],3.10 ± 0.44%
same,Inhibition %,[2]; [10],74.7%
same,Remaining Percentage (%) at 15 min,[2]; [10],65.6% and 65.6 ± 6.0%
same,Inhibition %,[2]; [11],88.2%
same,Remaining Percentage (%) at 15 min,[2]; [11],74.4% and 74.4 ± 5.8%
same,Remaining Percentage (%) at 60 min,[2]; [11],43.4 ± 2.8%
same,half-life at 2 µM,[3]; human,41 ± 6.8 min
same,Clint,"[3]; recombinant CYP2B6, 2 µM ZB716",0.343 ± 0.052 µL/min/pmol CYP

# Source: PMC8400955 (Pharmaceuticals, 2021)
